Results from US10329294B2, “Pyrazolopyrimidine inhibitors of IRAK4 activity” (MERCK SHARP & DOHME CORP., priority 2015, dated 2019).
Where a name gives a salt, the structure may show the parent alone.

biological target: IRAK4 (Homo sapiens (Human), UniProt Q9NWZ3); test: IRAK4 Kinase Assay; type: biochemical; settings: IMAP fluorescence polarization, 0.5 nM GST tagged IRAK4, 100 μM ATP, 30 minutes at 25° C.; read-out: IRAK4 IC50
Sequence (Q9NWZ3 whole entry): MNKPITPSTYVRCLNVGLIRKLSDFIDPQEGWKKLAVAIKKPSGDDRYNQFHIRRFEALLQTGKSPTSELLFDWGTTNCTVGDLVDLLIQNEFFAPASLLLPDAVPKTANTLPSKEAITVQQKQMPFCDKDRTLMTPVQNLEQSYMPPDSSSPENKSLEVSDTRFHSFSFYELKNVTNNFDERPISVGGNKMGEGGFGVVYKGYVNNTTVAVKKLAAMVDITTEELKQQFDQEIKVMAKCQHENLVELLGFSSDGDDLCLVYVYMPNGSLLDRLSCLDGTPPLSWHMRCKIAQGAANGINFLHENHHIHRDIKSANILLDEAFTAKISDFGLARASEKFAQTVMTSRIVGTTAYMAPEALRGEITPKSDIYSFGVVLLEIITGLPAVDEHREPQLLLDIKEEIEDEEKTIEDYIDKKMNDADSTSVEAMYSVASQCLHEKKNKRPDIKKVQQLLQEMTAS

SMILES	IC50 [nM]
Cn1cc(NC(=O)c2cnn3ccc(NCCN4CCOCC4)nc23)c(C(F)(F)F)n1 [Example 290, N-[1-methyl-3-(trifluoromethyl)-1H-pyrazol-4-yl]-5-[(2-morpholin-4-ylethyl)amino]pyrazolo[1,5-a]pyrimidine-3-carboxamide trifluoroacetate]	977
N[C@H]1CCCC[C@H]1Nc1ccn2ncc(C(=O)Nc3ccsc3Cl)c2n1 [Example 116, 5-{[(1R,2S)-2-aminocyclohexyl]amino}-N-(2-chlorothiophen-3-yl)pyrazolo[1,5-a]pyrimidine-3-carboxamide trifluoroacetate]	1
N[C@@H]1[C@H](Nc2ccn3ncc(C(=O)Nc4ccsc4C(F)F)c3n2)CCCC1(F)F [Example 170, 5-{[(1R,2R)-2-amino-3,3-difluorocyclohexyl]amino}-N-[2-(difluoromethyl)thiophen-3-yl]pyrazolo[1,5-a]pyrimidine-3-carboxamide]	560
Cn1cc(NC(=O)c2cnn3ccc(N4CCC[C@@H](O)C4)nc23)c(C(F)F)n1 [Example 25, N-[3-(difluoromethyl)-1-methyl-1H-pyrazol-4-yl]-5-[(3R)-3-hydroxypiperidin-1-yl]pyrazolo[1,5-a]pyrimidine-3-carboxamide]	0.5
C[C@@H]1CN[C@@H](C)CN1c1ccn2ncc(C(=O)Nc3cn(C)nc3C(F)(F)F)c2n1 (relative stereo) [Example 93, 5-[trans-2,5-dimethylpiperazin-1-yl]-N-[1-methyl-3-(trifluoromethyl)-1H-pyrazol-4-yl]pyrazolo[1,5-a]pyrimidine-3-carboxamide trifluoroacetate]	30
Cn1cc(NC(=O)c2cnn3ccc(N4CC5CCC4CN5)nc23)c(Br)n1 (stereo not drawn) [Example 140, N-(3-bromo-1-methyl-1H-pyrazol-4-yl)-5-(2,5-diazabicyclo[2.2.2]oct-2-yl)pyrazolo[1,5-a]pyrimidine-3-carboxamide trifluoroacetate]	42
O=C(Nc1cscc1Cl)c1cnn2ccc(N3C[C@H]4CC[C@@H]3CN4)nc12 (single isomer, unassigned) [Example 171, N-(4-chlorothiophen-3-yl)-5-[(1S,4S)- or (1R,4R)-2,5-diazabicyclo[2.2.2]oct-2-yl]pyrazolo[1,5-a]pyrimidine-3-carboxamide trifluoroacetate]	383
Cn1cc(NC(=O)c2cnn3ccc(N4C[C@H]5CNC[C@@H]4C5)nc23)c(C(F)F)n1 (single isomer, unassigned) [Example 240, 5-[(1S,5R)- or (1R,5S)-3,6-diazabicyclo[3.2.1]oct-6-yl]-N-[3-(difluoromethyl)-1-methyl-1H-pyrazol-4-yl]pyrazolo[1,5-a]pyrimidine-3-carboxamide]	43
N[C@H]1CCCC[C@H]1Nc1ccn2ncc(C(=O)Nc3ccsc3)c2n1 [Example 181, 5-{[(1R,2S)-2-aminocyclohexyl]amino}-N-thiophen-3-ylpyrazolo[1,5-a]pyrimidine-3-carboxamide trifluoroacetate]	54
O=C(Nc1ccccc1Cl)c1cnn2ccc(N3CCCNCC3)nc12 [Example 105, N-(2-chlorophenyl)-5-(1,4-diazepan-1-yl)pyrazolo[1,5-a]pyrimidine-3-carboxamide trifluoroacetate]	1270
N#Cc1sccc1NC(=O)c1cnn2ccc(N[C@@H]3CCCC(F)(F)[C@@H]3N)nc12 [Example 191, 5-{[(1R,2R)-2-amino-3,3-difluorocyclohexyl]amino}-N-(2-cyanothiophen-3-yl)pyrazolo[1,5-a]pyrimidine-3-carboxamide]	156
N#Cc1cscc1NC(=O)c1cnn2ccc(N[C@@H]3CCCC[C@@H]3N)nc12 [Example 39, 5-{[(1R,2S)-2-aminocyclohexyl]amino}-N-(4-cyanothiophen-3-yl)pyrazolo[1,5-a]pyrimidine-3-carboxamide trifluoroacetate]	2
Cn1cc(NC(=O)c2cnn3ccc(N4C[C@@H]5CN[C@@H](C5)C4)nc23)c(C(F)F)n1 (single isomer, unassigned) [Example 183, 5-[(1S,5S)- or (1R,5R)-3,6-diazabicyclo[3.2.1]oct-3-yl]-N-[3-(difluoromethyl)-1-methyl-1H-pyrazol-4-yl]pyrazolo[1,5-a]pyrimidine-3-carboxamide trifluoroacetate]	6
Cn1cc(NC(=O)c2cnn3ccc(N4C[C@@H]5CC[C@H]4CN5)nc23)c(Br)n1 (single isomer, unassigned) [Example 164, N-(3-bromo-1-methyl-1H-pyrazol-4-yl)-5-[(1S,4S)- or (1R,4R)-2,5-diazabicyclo[2.2.2]oct-2-yl]pyrazolo[1,5-a]pyrimidine-3-carboxamide trifluoroacetate]	50
N#Cc1ccccc1NC(=O)c1cnn2ccc(N3CC4CCC3CN4)nc12 (stereo not drawn) [Example 271, N-(2-cyanophenyl)-5-(2,5-diazabicyclo[2.2.2]oct-2-yl)pyrazolo[1,5-a]pyrimidine-3-carboxamide trifluoroacetate]	403
Cn1cc(NC(=O)c2cnn3ccc(N4C[C@@H]5CC[C@H]4CN5)nc23)c(C(F)F)n1 (single isomer, unassigned) [Example 158, 5-[(1S,4S)- or (1R,4R)-2,5-diazabicyclo[2.2.2]oct-2-yl]-N-[3-(difluoromethyl)-1-methyl-1H-pyrazol-4-yl]pyrazolo[1,5-a]pyrimidine-3-carboxamide trifluoroacetate]	3
CC(C)n1cc(NC(=O)c2cnn3ccc(N4CC5CCC4CN5)nc23)c(C(F)(F)F)n1 (stereo not drawn) [Example 53, 5-(2,5-diazabicyclo[2.2.2]oct-2-yl)-N-[1-(1-methylethyl)-3-(trifluoromethyl)-1H-pyrazol-4-yl]pyrazolo[1,5-a]pyrimidine-3-carboxamide]	48
Cn1cc(NC(=O)c2cnn3ccc(N4C[C@@H]5CC[C@H]4CN5)nc23)c(C(F)(F)F)n1 (single isomer, unassigned) [Example 78, 5-[(1S,4S)- or (1R,4R)-2,5-diazabicyclo[2.2.2]oct-2-yl]-N-[1-methyl-3-(trifluoromethyl)-1H-pyrazol-4-yl]pyrazolo[1,5-a]pyrimidine-3-carboxamide trifluoroacetate]	44
Cn1cc(NC(=O)c2cnn3ccc(N4CCNCCC45CC5)nc23)c(C(F)(F)F)n1 [Example 95, 5-(4,7-diazaspiro[2.6]non-4-yl)-N-[1-methyl-3-(trifluoromethyl)-1H-pyrazol-4-yl]pyrazolo[1,5-a]pyrimidine-3-carboxamide trifluoroacetate]	789
Cn1cc(NC(=O)c2cnn3ccc(N[C@H]4CNCCC4(F)F)nc23)c(C(F)(F)F)n1 (single isomer, unassigned) [Example 245, 5-[(R or S)-(4,4-difluoropiperidin-3-yl)amino]-N-[1-methyl-3-(trifluoromethyl)-1H-pyrazol-4-yl]pyrazolo[1,5-a]pyrimidine-3-carboxamide trifluoroacetate]	8
Cn1cc(NC(=O)c2cnn3ccc(N4C[C@@H](N)C[C@@H](F)C4)nc23)c(C(F)F)n1 [Example 249, 5-[(3S,5R)-3-amino-5-fluoropiperidin-1-yl]-N-[3-(difluoromethyl)-1-methyl-1H-pyrazol-4-yl]pyrazolo[1,5-a]pyrimidine-3-carboxamide trifluoroacetate]	1
